Test results as given in patent US20240116985A1, “STAPLED PEPTIDES AND METHODS THEREOF” (priority 2020, published 2024).
pIC50: −log10 of the molar value. Values after ≈ are worked out from the molar mass of the structure shown. Like-named read-outs stand apart in the source and are kept apart here.

Assays:
[1] = biological target: T1, full-length beta-Catenin (Uniprot ID P35222) (Homo sapiens, UniProt P35222); assay: Fluorescence polarization IC50 (beta-catenin / 5FAM-TCF4 10-53 competition); format: binding
T1 construct: 10 nM full-length beta-Catenin (Uniprot ID P35222)
T1 sequence (P35222 1-781): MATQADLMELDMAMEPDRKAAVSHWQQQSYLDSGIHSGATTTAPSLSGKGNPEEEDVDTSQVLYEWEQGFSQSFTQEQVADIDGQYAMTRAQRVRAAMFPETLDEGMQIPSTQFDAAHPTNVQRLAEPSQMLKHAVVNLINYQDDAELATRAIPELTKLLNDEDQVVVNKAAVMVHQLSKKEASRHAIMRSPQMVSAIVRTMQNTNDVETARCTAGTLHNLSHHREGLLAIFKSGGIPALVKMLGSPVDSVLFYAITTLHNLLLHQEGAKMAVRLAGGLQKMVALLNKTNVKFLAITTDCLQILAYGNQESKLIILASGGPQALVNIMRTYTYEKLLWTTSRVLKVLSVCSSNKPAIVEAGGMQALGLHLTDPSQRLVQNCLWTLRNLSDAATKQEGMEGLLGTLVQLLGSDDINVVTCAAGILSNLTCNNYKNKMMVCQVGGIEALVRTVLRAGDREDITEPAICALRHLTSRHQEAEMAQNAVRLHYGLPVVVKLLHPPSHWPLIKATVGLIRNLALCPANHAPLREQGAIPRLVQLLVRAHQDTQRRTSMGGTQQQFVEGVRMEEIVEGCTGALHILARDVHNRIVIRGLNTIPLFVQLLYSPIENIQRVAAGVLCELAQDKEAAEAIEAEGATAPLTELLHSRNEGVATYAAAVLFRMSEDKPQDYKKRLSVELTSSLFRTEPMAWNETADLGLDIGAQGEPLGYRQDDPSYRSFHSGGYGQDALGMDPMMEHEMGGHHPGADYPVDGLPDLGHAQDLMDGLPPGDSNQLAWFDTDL

Solubility in PBS = format: physicochemical
Outline: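 The PBS solution was ultracentrifuged and the supernatant analyzed by HPLC. Its peak area was divided by that of a 50 μM peptide DMSO reference injection and multiplied by 50 uM to give solubility.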

CHI Log D procedure = format: physicochemical; details: for CHI Log D: pH 7.4; for chromatographic logD: pH 7.4, CHI Log D
[2] = fluorescence polarization, beta-catenin, read-out: FP EC50

SMILES | pIC50 [1, 2] | pIC50 ([1]; read-out: beta-Catenin FP IC50) | Solubility (Solubility in PBS) [µM] | CHI Log D (CHI Log D procedure) | chromatographic logD (CHI Log D procedure) | Solubility (Solubility in PBS; Solubility (uM)) [µM]
CC(=O)N1CCC[C@]12CC=CCCCC1(CCCC=CCCCOC(=O)N3CC[C@@](C(=O)N[C@@H](Cc4ccsc4)C(=O)N[C@@H](Cc4csc5ccccc45)C(=O)N[C@@H](CO)C(N)=O)(C3)NC(=O)[C@H](Cc3ccccc3)NC(=O)[C@H](Cc3ccccc3)NC(=O)[C@H](C)NC(=O)[C@H](C)NC(=O)[C@H](Cc3cccc(C(=O)O)c3)NC(=O)[C@H](CC(=O)O)NC1=O)NC(=O)[C@H](CC(C)(C)C)NC(=O)[C@H](CC(=O)O)NC2=O (stereo partly drawn) [I-982, Ac-PL3-Asp-Npg-B5-Asp-3COOHF-Ala-Ala-Phe-Phe-PyrS2-3Thi-BztA-Ser-NH2] | 6.72 | 6.72 | 16 (≈ 31.8 µg/mL) | 1.853 |  | 
CC(=O)N1CCC[C@]12CC=CCCCC1(CCCC=CCCCOC(=O)N3CC[C@@](C(=O)N[C@@H](Cc4ccsc4)C(=O)N[C@@H](Cc4csc5ccccc45)C(=O)N[C@@H](CO)C(N)=O)(C3)NC(=O)[C@H](Cc3ccccc3)NC(=O)[C@H](Cc3ccccc3)NC(=O)[C@H](C)NC(=O)[C@H](C)NC(=O)[C@H](Cc3cccc(C(=O)O)c3)NC(=O)[C@H](CC(=O)O)NC1=O)NC(=O)[C@H](CC(C)(C)C)NC(=O)[C@H](CC(=O)O)NC2=O (stereo partly drawn) [I-983, Ac-PL3-Asp-Npg-B5-Asp-3COOHF-Ala-Ala-Phe-Phe-PyrS2-3Thi-BztA-Ser-NH2] | 6.93 | 6.93 | 10 (≈ 19.9 µg/mL) | 1.919 |  | 
CC(=O)N1CCC[C@]12CC=CCCCC1(CCCC=CCCCOC(=O)N3CC[C@@](C(=O)N[C@@H](Cc4ccsc4)C(=O)N[C@@H](Cc4csc5ccccc45)C(=O)N[C@@H](CO)C(N)=O)(C3)NC(=O)[C@H](CO)NC(=O)[C@H](Cc3ccccc3)NC(=O)[C@H](C)NC(=O)[C@H](C)NC(=O)[C@H](Cc3cccc(C(=O)O)c3)NC(=O)[C@H](CC(=O)O)NC1=O)NC(=O)[C@H](CC(C)(C)C)NC(=O)[C@H](CC(=O)O)NC2=O (stereo partly drawn) [I-984, Ac-PL3-Asp-Npg-B5-Asp-3COOHF-Ala-Ala-Phe-Ser-PyrS2-3Thi-BztA-Ser-NH2] | 6.75 | 6.75 | 45 (≈ 86.7 µg/mL) | 1.8 |  | 
CC(=O)N1CCC[C@]12CC=CCCCC1(CCCC=CCCCOC(=O)N3CC[C@@](C(=O)N[C@@H](Cc4ccsc4)C(=O)N[C@@H](Cc4csc5ccccc45)C(=O)N[C@@H](CO)C(N)=O)(C3)NC(=O)[C@H](CO)NC(=O)[C@H](Cc3ccccc3)NC(=O)[C@H](C)NC(=O)[C@H](C)NC(=O)[C@H](Cc3cccc(C(=O)O)c3)NC(=O)[C@H](CC(=O)O)NC1=O)NC(=O)[C@H](CC(C)(C)C)NC(=O)[C@H](CC(=O)O)NC2=O (stereo partly drawn) [I-985, Ac-PL3-Asp-Npg-B5-Asp-3COOHF-Ala-Ala-Phe-Ser-PyrS2-3Thi-BztA-Ser-NH2] | 6.52 | 6.37 | 47 (≈ 90.5 µg/mL) | 1.87 |  | 
CC(=O)N1CCC[C@]12CC=CCCCC1(CCCC=CCCCOC(=O)N3CC[C@@](C(=O)N[C@@H](Cc4ccsc4)C(=O)N[C@@H](Cc4csc5ccccc45)C(=O)N[C@@H](CO)C(N)=O)(C3)NC(=O)[C@H](CC(C)C)NC(=O)[C@H](Cc3ccccc3)NC(=O)[C@H](C)NC(=O)[C@H](C)NC(=O)[C@H](Cc3cccc(C(=O)O)c3)NC(=O)[C@H](CC(=O)O)NC1=O)NC(=O)[C@H](CC(C)(C)C)NC(=O)[C@H](CC(=O)O)NC2=O (stereo partly drawn) [I-986, Ac-PL3-Asp-Npg-B5-Asp-3COOHF-Ala-Ala-Phe-Leu-PyrS2-3Thi-BztA-Ser-NH2] | 6.87 | 6.87 | 27 (≈ 52.7 µg/mL) | 1.855 |  | 
CC(=O)N1CCC[C@]12CC=CCCCC1(CCCC=CCCCOC(=O)N3CC[C@@](C(=O)N[C@@H](Cc4ccsc4)C(=O)N[C@@H](Cc4csc5ccccc45)C(=O)N[C@@H](CO)C(N)=O)(C3)NC(=O)[C@H](CC(C)C)NC(=O)[C@H](Cc3ccccc3)NC(=O)[C@H](C)NC(=O)[C@H](C)NC(=O)[C@H](Cc3cccc(C(=O)O)c3)NC(=O)[C@H](CC(=O)O)NC1=O)NC(=O)[C@H](CC(C)(C)C)NC(=O)[C@H](CC(=O)O)NC2=O (stereo partly drawn) [I-987, Ac-PL3-Asp-Npg-B5-Asp-3COOHF-Ala-Ala-Phe-Leu-PyrS2-3Thi-BztA-Ser-NH2] | 6.95 | 6.95 | 10 (≈ 19.5 µg/mL) | 2.115 |  | 
CC(=O)N1CCC[C@]12CC=CCCCC1(CCCC=CCCCOC(=O)N3CC[C@@](C(=O)N[C@@H](Cc4ccc(O)cc4)C(=O)N[C@@H](Cc4csc5ccccc45)C(=O)N[C@@H](CCC(N)=O)C(N)=O)(C3)NC(=O)[C@H](Cc3ccccc3)NC(=O)[C@H](Cc3ccccc3)NC(=O)[C@H](C)NC(=O)[C@H](C)NC(=O)[C@H](CN(CC(=O)O)CC(F)(F)F)NC(=O)[C@H](CC(=O)O)NC1=O)NC(=O)[C@H](CC(C)(C)C)NC(=O)[C@H](CC(=O)O)NC2=O (stereo partly drawn) [I-989, Ac-PL3-Asp-Npg-B5-Asp-TfeGA-Ala-Ala-Phe-Phe-PyrS2-Tyr-BztA-Gln-NH2] |  | 7.06 | 10 (≈ 20.7 µg/mL) |  | 2.1 | 
CC(=O)N1CCC[C@]12CC=CCCCC1(CCCC=CCCCOC(=O)N3CC[C@@](C(=O)N[C@@H](Cc4ccccc4Cl)C(=O)N[C@@H](Cc4csc5ccccc45)C(=O)N[C@H](C(N)=O)[C@@H](C)O)(C3)NC(=O)[C@H](Cc3ccccc3)NC(=O)[C@H](Cc3ccccc3)NC(=O)[C@H](C)NC(=O)[C@H](C)NC(=O)[C@H](CN(CC(=O)O)CC(F)(F)F)NC(=O)[C@H](CC(=O)O)NC1=O)NC(=O)[C@H](CC(C)(C)C)NC(=O)[C@H](CC(=O)O)NC2=O (stereo partly drawn) [I-991, Ac-PL3-Asp-Npg-B5-Asp-TfeGA-Ala-Ala-Phe-Phe-PyrS2-2C1F-BztA-Thr-NH2] |  | 7.29 | 10 (≈ 20.6 µg/mL) |  | 2.7 | 
CC(=O)N1CCC[C@]12CC=CCCCC1(CCCC=CCCCOC(=O)N3CC[C@@](C(=O)N[C@@H](Cc4ccccc4Cl)C(=O)N[C@@H](Cc4csc5ccccc45)C(=O)N[C@@H](CCO)C(N)=O)(C3)NC(=O)[C@H](Cc3ccccc3)NC(=O)[C@H](Cc3ccccc3)NC(=O)[C@H](C)NC(=O)[C@H](C)NC(=O)[C@H](CN(CC(=O)O)CC(F)(F)F)NC(=O)[C@H](CC(=O)O)NC1=O)NC(=O)[C@H](CC(C)(C)C)NC(=O)[C@H](CC(=O)O)NC2=O (stereo partly drawn) [I-992, Ac-PL3-Asp-Npg-B5-Asp-TfeGA-Ala-Ala-Phe-Phe-PyrS2-2C1F-BztA-Hse-NH2] |  | 7.23 |  |  | 2.56 | 12 (≈ 24.8 µg/mL)
CC(=O)N1CCC[C@]12CC=CCCCC1(CCCC=CCCCCCC[C@@](C)(C(=O)N[C@@H](Cc3ccccc3Cl)C(=O)N[C@@H](Cc3csc4ccccc34)C(=O)N[C@@H](CCC(N)=O)C(N)=O)NC(=O)[C@H](CC(C)C)NC(=O)[C@H](Cc3ccccc3)NC(=O)[C@H](C)NC(=O)[C@H](C)NC(=O)[C@H](CN(CC(=O)O)CC(F)(F)F)NC(=O)[C@H](CC(=O)O)NC1=O)NC(=O)[C@H](CC(C)(C)C)NC(=O)[C@H](CC(=O)O)NC2=O (stereo partly drawn) [I-994, Ac-PL3-Asp-Npg-B5-Asp-TfeGA-Ala-Ala-Phe-Leu-S8-2C1F-BztA-Gln-NH2] |  | 6.92 | 10 (≈ 20.1 µg/mL) |  | 3.21 | 
CC(=O)N1CCC[C@]12CC=CCCCC1(CCCC=CCCCCCC[C@@](C)(C(=O)N[C@@H](Cc3ccccc3Cl)C(=O)N[C@@H](Cc3csc4ccccc34)C(=O)N[C@@H](CCC(N)=O)C(N)=O)NC(=O)[C@H](CO)NC(=O)[C@H](Cc3ccccc3)NC(=O)[C@H](C)NC(=O)[C@H](C)NC(=O)[C@H](CN(CC(=O)O)CC(F)(F)F)NC(=O)[C@H](CC(=O)O)NC1=O)NC(=O)[C@H](CC(C)(C)C)NC(=O)[C@H](CC(=O)O)NC2=O (stereo partly drawn) [I-995, Ac-PL3-Asp-Npg-B5-Asp-TfeGA-Ala-Ala-Phe-Ser-S8-2C1F-BztA-Gln-NH2] |  | 7.26 |  |  | 2.8 | 34 (≈ 67.6 µg/mL)
CC(=O)N1CCC[C@]12CC=CCCCC1(CCCC=CCCCCCC[C@@](C)(C(=O)N[C@@H](Cc3ccccc3Cl)C(=O)N[C@@H](Cc3csc4ccccc34)C(=O)N[C@@H](CCO)C(N)=O)NC(=O)[C@H](CC(C)C)NC(=O)[C@H](Cc3ccccc3)NC(=O)[C@H](C)NC(=O)[C@H](C)NC(=O)[C@H](CN(CC(=O)O)CC(F)(F)F)NC(=O)[C@H](CC(=O)O)NC1=O)NC(=O)[C@H](CC(C)(C)C)NC(=O)[C@H](CC(=O)O)NC2=O (stereo partly drawn) [I-997, Ac-PL3-Asp-Npg-B5-Asp-TfeGA-Ala-Ala-Phe-Leu-S8-2C1F-BztA-Hse-NH2] |  | 6.81 | 10 (≈ 19.9 µg/mL) |  | 3.42 | 
